Source: patent US8252939B2, “Sulfoximinamide compounds for combating animal pests” (BASF SE, priority 2008, dated 2012)

What was measured:
Type in all cases: in vivo
[1] = test system: Myzus persicae; assay: Green peach aphid (Myzus persicae) II, pepper plant leaf dip; conditions: foliar, 120 h, after 5 days, read-out: mortality in comparison with untreated controls
Description: The active compounds were formulated in 50:50 acetone:water (vol:vol) and 100 ppm Kinetica™ surfactant.
Pepper plants in the 2nd leaf-pair stage (variety ‘California Wonder’) were infested with approximately 40 laboratory-reared aphids by placing infested leaf sections on top of the test plants. The leaf sections were removed after 24 hr. The leaves of the intact plants were dipped into gradient solutions of the test compound and allowed to dry. Test plants were maintained under fluorescent light (24 hour photoperiod) at about 25° C. and about 20-40% relative humidity. Aphid mortality on the treated plants, relative to mortality on check plants, was determined after 5 days.

[2] = test system: Megoura viciae; assay: Vetch aphid (Megoura viciae) contact or systemic, broad bean leaf disks; conditions: foliar, 120 h, after 5 days, read-out: mortality in comparison with untreated controls
Protocol: For evaluating control of vetch aphid (Megoura viciae) through contact or systemic means the test unit consisted of 24-well-microtiter plates containing broad bean leaf disks.
The compounds were formulated using a solution containing 75% v/v water and 25% v/v DMSO. Different concentrations of formulated compounds were sprayed onto the leaf disks at 2.5 μl, using a custom built micro atomizer, at two replications. After application, the leaf disks were air-dried and 5-8 adult aphids placed on the leaf disks inside the microtiter plate wells. The aphids were then allowed to suck on the treated leaf disks and incubated at about 23±1° C. and about 50±5% relative humidity for 5 days. Aphid mortality and fecundity was then visually assessed.

[3] = test system: Nephotettix virescens; assay: Rice green leafhopper (Nephotettix virescens), sprayed rice seedlings; conditions: after 72 hours, read-out: mortality in comparison with untreated controls
Protocol: Rice seedlings were cleaned and washed 24 hours before spraying. The active compounds were formulated in 50:50 acetone:water (vol:vol), and 0.1% vol/vol surfactant (EL 620) was added. Potted rice seedlings were sprayed with 5 ml test solution, air dried, placed in cages and inoculated with 10 adults. Treated rice plants were kept at about 28-29° C. and relative humidity of about 50-60%. Percent mortality was recorded after 72 hours.

[4] = test system: aphis craccivora; assay: Cowpea aphid (aphis craccivora), sprayed potted cowpea plants; conditions: population reduction assessed after 24, 72, and 120 hours, read-out: mortality in comparison with untreated controls
Protocol: The active compound is dissolved at the desired concentration in a mixture of 1:1 (vol:vol) distilled water:acetone. The test solution is prepared at the day of use.
Potted cowpea plants colonized with approximately 100-150 aphids of various stages were sprayed after the pest population has been recorded. Population reduction was assessed after 24, 72, and 120 hours.

[5] = test system: Aphis gossypii; assay: Cotton aphid (Aphis gossypii) I, cotton cotyledon dip; conditions: 120 h, after 5 days, read-out: mortality in comparison with untreated controls
Description: The active compounds were formulated in 50:50 (vol:vol) acetone:water and 100 ppm Kinetica™ surfactant.
Cotton plants at the cotyledon stage (one plant per pot) were infested by placing a heavily infested leaf from the main colony on top of each cotyledon. The aphids were allowed to transfer to the host plant overnight, and the leaf used to transfer the aphids was removed. The cotyledons were dipped in the test solution and allowed to dry. After 5 days, mortality counts were made.

[6] = test system: dichromothrips corbetti; assay: Orchid thrips (dichromothrips corbetti) floral-immersion; conditions: 96 h, after 4 days, read-out: mortality in comparison with untreated controls
Protocol: Dichromothrips corbetti adults used for bioassay were obtained from a colony maintained continuously under laboratory conditions. For testing purposes, the test compound was diluted to a concentration of 300 ppm (wt compound: vol diluent) in a 1:1 mixture of acetone:water (vol:vol), plus 0.01% vol/vol Kinetic® surfactant.
Thrips potency of each compound was evaluated by using a floral-immersion technique. Plastic petri dishes were used as test arenas. All petals of individual, intact orchid flowers were dipped into treatment solution and allowed to dry. Treated flowers were placed into individual petri dishes along with 10-15 adult thrips. The petri dishes were then covered with lids. All test arenas were held under continuous light and a temperature of about 28° C. for duration of the assay. After 4 days, the numbers of live thrips were counted on each flower, and along inner walls of each petri dish. The level of thrips mortality was extrapolated from pre-treatment thrips numbers.

[7] = test system: Anthonomus grandis; assay: Boll weevil (Anthonomus grandis) egg and larval mortality, microtiter plate insect diet; conditions: 120 h, egg and larval mortality after 5 days, read-out: mortality in comparison with untreated controls
Protocol: For evaluating control of boll weevil (Anthonomus grandis) the test unit consisted of 24-well-microtiter plates containing an insect diet and 20-30 A. grandis eggs.
The compounds were formulated using a solution containing 75% v/v water and 25% v/v DMSO. Different concentrations of formulated compounds were sprayed onto the insect diet at 20 μl, using a custom built micro atomizer, at two replications. After application, microtiter plates were incubated at about 23±1° C. and about 50±5% relative humidity for 5 days. Egg and larval mortality was then visually assessed.

[8] = test system: Myzus persicae; assay: Green peach aphid (Myzus persicae) I, systemic, artificial diet under membrane; conditions: 72 h, after 3 days, read-out: mortality in comparison with untreated controls
Description: For evaluating control of green peach aphid (Myzus persicae) through systemic means the test unit consisted of 96-well-microtiter plates containing liquid artificial diet under an artificial membrane.
The compounds were formulated using a solution containing 75% v/v water and 25% v/v DMSO. Different concentrations of formulated compounds were pipetted into the aphid diet, using a custom built pipetter, at two replications.
After application, 5-8 adult aphids were placed on the artificial membrane inside the microtiter plate wells. The aphids were then allowed to suck on the treated aphid diet and incubated at about 23±1° C. and about 50±5% relative humidity for 3 days. Aphid mortality and fecundity was then visually assessed.

N#CN=S1(=O)CCCN1c1cnc(Cl)c(Cl)c1 (centres unmarked) [compound 12]
> 75%: mortality at 300 ppm [1] | mortality at 2500 ppm [2] | mortality at 300 ppm [3] | mortality at 300 ppm [4] | mortality at 300 ppm [5]

N#CN=S1(=O)CCCN1Cc1ccc(Cl)nc1 (centres unmarked) [compound 1]
> 75%: mortality at 300 ppm [6] | mortality at 2500 ppm [7] | mortality at 300 ppm [1] | mortality at 2500 ppm [2] | mortality at 300 ppm [3] | mortality at 300 ppm [4] | mortality at 300 ppm [8] | mortality at 300 ppm [5]

CS(=O)(=NC#N)NCc1ccc(Cl)nc1 (centres unmarked) [compound 90]
> 75%: mortality at 300 ppm [1] | mortality at 2500 ppm [2] | mortality at 300 ppm [4] | mortality at 300 ppm [5]
